The source of these data is patent US12202835B2, “Substituted aromatic ring-linked dioxinoquinazolines and dioxinoquinolines as kinase inhibitors” (BEIJING SCITECH-MQ PHARMACEUTICALS LIMITED, priority 2018, dated 2025).

The test system of one test is EBC1 cells. As to the kind of experiment: Assay for inhibiting the proliferation of EBC1 cells (CCK-8). It counts as cell-based. The settings on record: Homo sapiens, EBC-1. The method, boiled down: (§1)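 Cells seeded in 96-well plates overnight, then exposed 72 h to 9 three-fold dilutions of compound (0.25% DMSO final). Viability by CCK-8 (1-2 h at 37° C., OD 450 nm), survival normalized to untreated and cell-free blanks; IC50 by curve fitting.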

The next test concerns MHCC97H cells. Description: Assay for inhibiting the proliferation of MHCC97H cells (CCK-8). The class given is cell-based. The following applies: Homo sapiens. The method, boiled down:
as §1

For another test, the system named is Ba/F3-AXL cells. As to the kind of experiment: Assay for inhibiting the proliferation of Ba/F3-AXL cells (CCK-8). It counts as cell-based. The following applies: 72 hours of incubation, medium with 100 ng/mL hGas6, CCK-8. Here is the method: The values were then imported into Graphpad Prism 5 software for curve fitting, and IC50 was calculated.
In the next test the target is MER kinase (Homo sapiens (Human), UniProt Q12866). As to the kind of experiment: Assay of small molecular compounds for inhibiting the activity of MER kinase (LANCE TR-FRET). It counts as biochemical. The method, boiled down: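 LANCE TR-FRET readout of ULight-poly GT phosphorylation by MER kinase; compound final range 0.042-2500 nM, 3-fold steps, 5 min enzyme preincubation. Reaction 60 min at room temperature in the dark with substrate/ATP (4× at 200 nM/20 μM), 1% DMSO, then stopped and developed 60 min; IC50 by curve fit.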
Chain of MER kinase (Q12866 21-999): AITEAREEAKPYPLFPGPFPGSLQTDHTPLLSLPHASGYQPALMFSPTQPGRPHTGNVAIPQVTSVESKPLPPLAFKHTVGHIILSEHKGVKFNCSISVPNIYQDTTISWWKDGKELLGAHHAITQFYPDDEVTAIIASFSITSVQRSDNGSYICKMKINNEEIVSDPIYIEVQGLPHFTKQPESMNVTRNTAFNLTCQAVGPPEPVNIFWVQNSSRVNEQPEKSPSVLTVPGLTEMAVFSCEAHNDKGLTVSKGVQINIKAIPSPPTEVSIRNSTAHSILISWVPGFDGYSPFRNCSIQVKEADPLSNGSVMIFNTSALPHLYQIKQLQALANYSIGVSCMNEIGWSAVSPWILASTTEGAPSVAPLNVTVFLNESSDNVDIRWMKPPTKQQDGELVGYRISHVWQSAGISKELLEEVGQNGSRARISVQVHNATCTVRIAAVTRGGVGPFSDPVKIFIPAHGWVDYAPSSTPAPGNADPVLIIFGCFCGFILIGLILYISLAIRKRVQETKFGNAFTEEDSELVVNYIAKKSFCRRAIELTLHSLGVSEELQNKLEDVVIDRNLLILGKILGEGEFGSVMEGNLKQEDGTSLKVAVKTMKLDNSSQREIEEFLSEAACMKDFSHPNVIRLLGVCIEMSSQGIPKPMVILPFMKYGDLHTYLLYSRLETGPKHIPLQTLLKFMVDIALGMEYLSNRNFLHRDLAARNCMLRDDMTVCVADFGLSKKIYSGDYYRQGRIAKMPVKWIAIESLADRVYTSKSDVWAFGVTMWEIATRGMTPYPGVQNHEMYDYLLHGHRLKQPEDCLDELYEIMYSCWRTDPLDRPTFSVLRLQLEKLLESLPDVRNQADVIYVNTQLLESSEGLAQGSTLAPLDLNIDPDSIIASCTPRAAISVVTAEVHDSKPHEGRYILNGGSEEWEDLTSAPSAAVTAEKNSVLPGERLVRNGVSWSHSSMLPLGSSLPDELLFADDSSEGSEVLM

The term IC50 denotes the concentration at which inhibition is half-maximal. For `COCCCOc1cc2nccc(Oc3ccc(NC(=O)c4cn(C)c(=O)n(-c5ccc(F)cc5)c4=O)cc3F)c2c2c1OCCO2` [Example 80, N-(3-fluoro-4-((5-(3-methoxypropoxy)-2,3-dihydro-[1,4]dioxino[2,3-f]quinolin-10-yl)oxy)phenyl)-3-(4-fluorophenyl)-1-methyl-2,4-dioxo-1,2,3,4-tetrahydropyrimidine-5-carboxamide], the IC50 in the test with EBC1 cells was at most 50 nM; with MHCC97H cells, at most 50 nM; in the test on Ba/F3-AXL cells it was under 50 nM; against MER kinase, at most 50 nM.
